{"source": "the supplement of paper PMC10307832", "assay_in_all_cases": "relative viability (nuclei count vs DMSO), 5 days (fraction); higher = more cells survive", "key": {"COR-L 105": {"tested_on": "COR-L 105", "how_it_was_run": "(§1)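 Relative viability was taken as the ratio of nuclei in treated wells to nuclei in vehicle wells. Lung cancer cell lines in 1536-well plates received compounds by pin tool one day after seeding, either one drug alone or a fixed anchor-drug dose plus five library-drug doses (not always all listed) in √10 steps. Nuclei were counted on 4× images after 5 days of treatment, and values are medians of duplicate plates.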"}, "LCLC-103H": {"tested_on": "LCLC-103H", "how_it_was_run": "as §1"}, "LK-2": {"tested_on": "LK-2", "how_it_was_run": "as §1"}, "NCI-H1355": {"tested_on": "NCI-H1355", "how_it_was_run": "as §1"}, "NCI-H1623": {"tested_on": "NCI-H1623", "how_it_was_run": "as §1"}, "NCI-H1648": {"tested_on": "NCI-H1648", "how_it_was_run": "as §1"}, "NCI-H1666": {"tested_on": "NCI-H1666", "how_it_was_run": "as §1"}, "NCI-H520": {"tested_on": "NCI-H520", "how_it_was_run": "as §1"}, "NCI-H522": {"tested_on": "NCI-H522", "how_it_was_run": "as §1"}}}
{"smiles": "Nc1ccn([C@@H]2O[C@H](CO)[C@@H](O)[C@@H]2O)c(=O)n1", "note": "[Cytarabine] + COc1cccc2cc(-c3nc([C@H]4CC[C@H](C(=O)O)CC4)n4ncnc(N)c34)[nH]c12 [OSI-027] (partner 0.5 µM)", "values": [{"measurement": "relative viability", "setting": "COR-L 105; first compound 0.005 µM", "result": 0.601}, {"measurement": "relative viability", "setting": "COR-L 105; first compound 0.01581 µM", "result": 0.587}, {"measurement": "relative viability", "setting": "COR-L 105; first compound 0.05 µM", "result": 0.586}, {"measurement": "relative viability", "setting": "COR-L 105; first compound 0.1581 µM", "result": 0.354}, {"measurement": "relative viability", "setting": "COR-L 105; first compound 0.5 µM", "result": 0.224}, {"measurement": "relative viability", "setting": "LCLC-103H; first compound 0.005 µM", "result": 0.412}, {"measurement": "relative viability", "setting": "LCLC-103H; first compound 0.01581 µM", "result": 0.411}, {"measurement": "relative viability", "setting": "LCLC-103H; first compound 0.05 µM", "result": 0.511}, {"measurement": "relative viability", "setting": "LCLC-103H; first compound 0.1581 µM", "result": 0.418}, {"measurement": "relative viability", "setting": "LCLC-103H; first compound 0.5 µM", "result": 0.473}, {"measurement": "relative viability", "setting": "LK-2; first compound 0.005 µM", "result": 0.194}, {"measurement": "relative viability", "setting": "LK-2; first compound 0.01581 µM", "result": 0.175}, {"measurement": "relative viability", "setting": "LK-2; first compound 0.05 µM", "result": 0.205}, {"measurement": "relative viability", "setting": "LK-2; first compound 0.1581 µM", "result": 0.156}, {"measurement": "relative viability", "setting": "LK-2; first compound 0.5 µM", "result": 0.154}, {"measurement": "relative viability", "setting": "NCI-H1355; first compound 0.005 µM", "result": 0.41}, {"measurement": "relative viability", "setting": "NCI-H1355; first compound 0.01581 µM", "result": 0.402}, {"measurement": "relative viability", "setting": "NCI-H1355; first compound 0.05 µM", "result": 0.31}, {"measurement": "relative viability", "setting": "NCI-H1355; first compound 0.1581 µM", "result": 0.2}, {"measurement": "relative viability", "setting": "NCI-H1355; first compound 0.5 µM", "result": 0.21}, {"measurement": "relative viability", "setting": "NCI-H1623; first compound 0.005 µM", "result": 0.372}, {"measurement": "relative viability", "setting": "NCI-H1623; first compound 0.01581 µM", "result": 0.376}, {"measurement": "relative viability", "setting": "NCI-H1623; first compound 0.05 µM", "result": 0.277}, {"measurement": "relative viability", "setting": "NCI-H1623; first compound 0.1581 µM", "result": 0.258}, {"measurement": "relative viability", "setting": "NCI-H1623; first compound 0.5 µM", "result": 0.243}, {"measurement": "relative viability", "setting": "NCI-H1648; first compound 0.005 µM", "result": 0.238}, {"measurement": "relative viability", "setting": "NCI-H1648; first compound 0.01581 µM", "result": 0.266}, {"measurement": "relative viability", "setting": "NCI-H1648; first compound 0.05 µM", "result": 0.246}, {"measurement": "relative viability", "setting": "NCI-H1648; first compound 0.1581 µM", "result": 0.214}, {"measurement": "relative viability", "setting": "NCI-H1648; first compound 0.5 µM", "result": 0.263}, {"measurement": "relative viability", "setting": "NCI-H1666; first compound 0.005 µM", "result": 0.81}, {"measurement": "relative viability", "setting": "NCI-H1666; first compound 0.01581 µM", "result": 0.729}, {"measurement": "relative viability", "setting": "NCI-H1666; first compound 0.05 µM", "result": 0.798}, {"measurement": "relative viability", "setting": "NCI-H1666; first compound 0.1581 µM", "result": 0.455}, {"measurement": "relative viability", "setting": "NCI-H1666; first compound 0.5 µM", "result": 0.511}, {"measurement": "relative viability", "setting": "NCI-H520; first compound 0.005 µM", "result": 0.25}, {"measurement": "relative viability", "setting": "NCI-H520; first compound 0.01581 µM", "result": 0.262}, {"measurement": "relative viability", "setting": "NCI-H520; first compound 0.05 µM", "result": 0.33}, {"measurement": "relative viability", "setting": "NCI-H520; first compound 0.1581 µM", "result": 0.212}, {"measurement": "relative viability", "setting": "NCI-H520; first compound 0.5 µM", "result": 0.16}, {"measurement": "relative viability", "setting": "NCI-H522; first compound 0.005 µM", "result": 0.717}, {"measurement": "relative viability", "setting": "NCI-H522; first compound 0.01581 µM", "result": 0.599}, {"measurement": "relative viability", "setting": "NCI-H522; first compound 0.05 µM", "result": 0.395}, {"measurement": "relative viability", "setting": "NCI-H522; first compound 0.1581 µM", "result": 0.48}, {"measurement": "relative viability", "setting": "NCI-H522; first compound 0.5 µM", "result": 0.539}]}
{"smiles": "CC(=O)O[C@@]12CO[C@@H]1C[C@H](O)[C@@]1(C)C(=O)[C@H](O)C3=C(C)[C@@H](OC(=O)[C@H](O)[C@@H](NC(=O)OC(C)(C)C)c4ccccc4)C[C@@](O)([C@@H](OC(=O)c4ccccc4)[C@H]21)C3(C)C", "note": "[Docetaxel] + Cc1cc(Nc2cc(N3CCN(C)CC3)nc(Sc3ccc(NC(=O)C4CC4)cc3)n2)n[nH]1 [Tozasertib] (partner 0.1 µM)", "values": [{"measurement": "relative viability", "setting": "COR-L 105; first compound 0.0002 µM", "result": 0.323}, {"measurement": "relative viability", "setting": "COR-L 105; first compound 0.000632 µM", "result": 0.382}, {"measurement": "relative viability", "setting": "COR-L 105; first compound 0.002 µM", "result": 0.36}, {"measurement": "relative viability", "setting": "COR-L 105; first compound 0.006325 µM", "result": 0.384}, {"measurement": "relative viability", "setting": "COR-L 105; first compound 0.02 µM", "result": 0.344}, {"measurement": "relative viability", "setting": "LCLC-103H; first compound 0.0002 µM", "result": 0.48}, {"measurement": "relative viability", "setting": "LCLC-103H; first compound 0.000632 µM", "result": 0.39}, {"measurement": "relative viability", "setting": "LCLC-103H; first compound 0.002 µM", "result": 0.358}, {"measurement": "relative viability", "setting": "LCLC-103H; first compound 0.006325 µM", "result": 0.377}, {"measurement": "relative viability", "setting": "LCLC-103H; first compound 0.02 µM", "result": 0.296}, {"measurement": "relative viability", "setting": "LK-2; first compound 0.0002 µM", "result": 0.155}, {"measurement": "relative viability", "setting": "LK-2; first compound 0.000632 µM", "result": 0.215}, {"measurement": "relative viability", "setting": "LK-2; first compound 0.002 µM", "result": 0.157}, {"measurement": "relative viability", "setting": "LK-2; first compound 0.006325 µM", "result": 0.188}, {"measurement": "relative viability", "setting": "LK-2; first compound 0.02 µM", "result": 0.166}, {"measurement": "relative viability", "setting": "NCI-H1355; first compound 0.0002 µM", "result": 0.453}, {"measurement": "relative viability", "setting": "NCI-H1355; first compound 0.000632 µM", "result": 0.43}, {"measurement": "relative viability", "setting": "NCI-H1355; first compound 0.002 µM", "result": 0.271}, {"measurement": "relative viability", "setting": "NCI-H1355; first compound 0.006325 µM", "result": 0.263}, {"measurement": "relative viability", "setting": "NCI-H1355; first compound 0.02 µM", "result": 0.202}, {"measurement": "relative viability", "setting": "NCI-H1623; first compound 0.0002 µM", "result": 0.453}, {"measurement": "relative viability", "setting": "NCI-H1623; first compound 0.000632 µM", "result": 0.367}, {"measurement": "relative viability", "setting": "NCI-H1623; first compound 0.002 µM", "result": 0.409}, {"measurement": "relative viability", "setting": "NCI-H1623; first compound 0.006325 µM", "result": 0.42}, {"measurement": "relative viability", "setting": "NCI-H1623; first compound 0.02 µM", "result": 0.377}, {"measurement": "relative viability", "setting": "NCI-H1648; first compound 0.0002 µM", "result": 0.449}, {"measurement": "relative viability", "setting": "NCI-H1648; first compound 0.000632 µM", "result": 0.509}, {"measurement": "relative viability", "setting": "NCI-H1648; first compound 0.002 µM", "result": 0.28}, {"measurement": "relative viability", "setting": "NCI-H1648; first compound 0.006325 µM", "result": 0.195}, {"measurement": "relative viability", "setting": "NCI-H1648; first compound 0.02 µM", "result": 0.155}, {"measurement": "relative viability", "setting": "NCI-H1666; first compound 0.0002 µM", "result": 0.564}, {"measurement": "relative viability", "setting": "NCI-H1666; first compound 0.000632 µM", "result": 0.506}, {"measurement": "relative viability", "setting": "NCI-H1666; first compound 0.002 µM", "result": 0.496}, {"measurement": "relative viability", "setting": "NCI-H1666; first compound 0.006325 µM", "result": 0.418}, {"measurement": "relative viability", "setting": "NCI-H1666; first compound 0.02 µM", "result": 0.31}, {"measurement": "relative viability", "setting": "NCI-H520; first compound 0.0002 µM", "result": 0.418}, {"measurement": "relative viability", "setting": "NCI-H520; first compound 0.000632 µM", "result": 0.468}, {"measurement": "relative viability", "setting": "NCI-H520; first compound 0.002 µM", "result": 0.445}, {"measurement": "relative viability", "setting": "NCI-H520; first compound 0.006325 µM", "result": 0.376}, {"measurement": "relative viability", "setting": "NCI-H520; first compound 0.02 µM", "result": 0.317}, {"measurement": "relative viability", "setting": "NCI-H522; first compound 0.0002 µM", "result": 0.559}, {"measurement": "relative viability", "setting": "NCI-H522; first compound 0.000632 µM", "result": 0.451}, {"measurement": "relative viability", "setting": "NCI-H522; first compound 0.002 µM", "result": 0.527}, {"measurement": "relative viability", "setting": "NCI-H522; first compound 0.006325 µM", "result": 0.551}, {"measurement": "relative viability", "setting": "NCI-H522; first compound 0.02 µM", "result": 0.585}]}
